Where a name gives a salt, the structure may show the parent alone.
target: T1, ENaC (Epithelial Sodium Channel) (Mus musculus, UniProt Q61180+Q9WU38+Q9WU39); assay: Ussing Chamber assay (short circuit current, amiloride sensitive I_SC); format: cell-based; settings: Ussing chamber, mouse kidney M-1 cells, short circuit current, compound added to the apical solution; read-out: IC50
T1 construct: Mouse kidney M−1 cells were cultivated in DMEM; endogenous in cells; host or cells: Mouse kidney M-1 cells, cultivated with dexamethasone on transwell filters
T1 sequence (Q61180 1-699): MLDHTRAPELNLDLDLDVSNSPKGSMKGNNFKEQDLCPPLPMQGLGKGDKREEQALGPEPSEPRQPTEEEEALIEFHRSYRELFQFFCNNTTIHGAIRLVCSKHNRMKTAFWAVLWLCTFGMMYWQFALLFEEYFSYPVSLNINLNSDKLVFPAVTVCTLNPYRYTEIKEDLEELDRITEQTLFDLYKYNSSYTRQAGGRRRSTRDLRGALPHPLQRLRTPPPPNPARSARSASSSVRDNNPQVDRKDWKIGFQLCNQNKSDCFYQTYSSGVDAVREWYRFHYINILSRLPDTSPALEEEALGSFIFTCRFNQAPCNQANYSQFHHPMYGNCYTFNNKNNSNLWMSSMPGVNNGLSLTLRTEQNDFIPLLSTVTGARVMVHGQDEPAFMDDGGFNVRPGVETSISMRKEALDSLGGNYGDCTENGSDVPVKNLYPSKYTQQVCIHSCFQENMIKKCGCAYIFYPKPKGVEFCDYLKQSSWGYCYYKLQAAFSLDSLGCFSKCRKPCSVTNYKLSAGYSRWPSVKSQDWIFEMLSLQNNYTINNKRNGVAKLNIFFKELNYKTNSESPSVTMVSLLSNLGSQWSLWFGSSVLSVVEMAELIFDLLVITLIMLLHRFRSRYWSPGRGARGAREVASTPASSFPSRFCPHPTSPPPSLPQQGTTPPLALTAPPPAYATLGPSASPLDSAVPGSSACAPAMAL
T1 sequence (Q9WU38 1-638): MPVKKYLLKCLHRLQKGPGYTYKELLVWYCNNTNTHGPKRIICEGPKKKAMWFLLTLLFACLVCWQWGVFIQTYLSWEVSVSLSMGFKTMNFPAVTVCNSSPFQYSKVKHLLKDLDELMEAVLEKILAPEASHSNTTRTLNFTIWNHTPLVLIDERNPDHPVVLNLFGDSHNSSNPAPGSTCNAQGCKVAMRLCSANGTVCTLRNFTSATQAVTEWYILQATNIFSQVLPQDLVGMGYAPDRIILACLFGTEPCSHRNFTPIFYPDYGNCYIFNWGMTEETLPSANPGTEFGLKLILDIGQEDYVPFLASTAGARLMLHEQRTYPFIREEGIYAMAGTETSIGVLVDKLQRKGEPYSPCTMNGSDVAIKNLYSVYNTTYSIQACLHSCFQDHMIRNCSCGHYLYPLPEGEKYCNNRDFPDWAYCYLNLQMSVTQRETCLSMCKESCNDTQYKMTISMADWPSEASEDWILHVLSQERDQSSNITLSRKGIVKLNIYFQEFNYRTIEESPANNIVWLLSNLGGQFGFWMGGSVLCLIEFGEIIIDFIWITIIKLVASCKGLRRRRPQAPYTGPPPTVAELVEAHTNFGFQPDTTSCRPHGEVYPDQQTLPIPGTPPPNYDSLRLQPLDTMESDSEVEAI
T1 sequence (Q9WU39 1-655): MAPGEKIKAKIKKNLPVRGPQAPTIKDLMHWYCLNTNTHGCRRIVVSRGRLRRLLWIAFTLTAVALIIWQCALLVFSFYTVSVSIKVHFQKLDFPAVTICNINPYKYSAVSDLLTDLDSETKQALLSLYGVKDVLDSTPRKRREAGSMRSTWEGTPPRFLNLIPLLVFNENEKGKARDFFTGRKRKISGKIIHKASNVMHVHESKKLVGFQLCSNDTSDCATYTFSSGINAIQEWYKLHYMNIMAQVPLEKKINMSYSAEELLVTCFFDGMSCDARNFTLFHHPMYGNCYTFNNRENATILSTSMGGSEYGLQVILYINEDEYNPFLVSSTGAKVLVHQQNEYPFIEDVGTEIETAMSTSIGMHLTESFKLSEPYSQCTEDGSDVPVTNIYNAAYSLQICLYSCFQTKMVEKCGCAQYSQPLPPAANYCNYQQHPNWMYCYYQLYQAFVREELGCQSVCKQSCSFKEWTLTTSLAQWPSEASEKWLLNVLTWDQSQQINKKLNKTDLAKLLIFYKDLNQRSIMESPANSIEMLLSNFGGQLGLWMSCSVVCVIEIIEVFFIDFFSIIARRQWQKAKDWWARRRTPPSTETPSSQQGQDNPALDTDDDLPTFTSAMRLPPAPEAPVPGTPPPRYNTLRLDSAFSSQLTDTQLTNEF
Outline: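 Mouse kidney M-1 cells grown 10–12 days on filters with 5 μM dexamethasone, measured in Caco-2 transport buffer at 37° C under voltage clamp. Compound applied apically at 3 μM or 1-3-10 μM; 3 μM amiloride added at end. Short circuit current inhibition given as percent of amiloride effect or IC50.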

Row | SMILES | IC50 [µM]
1 | CN1CCC(NC(=O)COc2ccc(CCC[N+]3(CCCc4ccc(OCC(=O)NC5CCN(C)C5=O)cc4)CCC[C@H](NC(=O)c4nc(Cl)c(N)nc4N)C3)cc2)C1=O (stereo partly drawn) [Example 6.46] | 0.083
2 | CN(CCS(C)(=O)=O)C(=O)COc1ccc(CCC[N+]2(CCCc3ccc(OCC(=O)N(C)CCS(C)(=O)=O)cc3)CCC[C@H](NC(=O)c3nc(Cl)c(N)nc3N)C2)cc1 [Example 6.48] | 0.085
3 | Nc1nc(N)c(C(=O)N[C@H]2CCC[N+](CCCc3ccc(OCC(=O)N4CCN(CCO)CC4)cc3)(CCCc3ccc(OCC(=O)N4CCN(CCO)CC4)cc3)C2)nc1Cl [Example 6.54] | 0.098
4 | Nc1nc(N)c(C(=O)N[C@H]2CCC[N+](CCCc3ccc(OCC(=O)N4CCC(O)CC4)cc3)(CCCc3ccc(OCC(=O)N4CCC(O)CC4)cc3)C2)nc1Cl [Example 6.56] | 0.092
5 | CN(CCO)C(=O)COc1ccc(CCC[N+]2(CCCc3ccc(OCC(=O)N(C)CCO)cc3)CCC[C@H](NC(=O)c3nc(Cl)c(N)nc3N)C2)cc1 [Example 6.61] | 0.108
6 | CN(CC#N)C(=O)COc1ccc(CCC[N+]2(CCCc3ccc(OCC(=O)N(C)CC#N)cc3)CCC[C@H](NC(=O)c3nc(Cl)c(N)nc3N)C2)cc1 [Example 6.65] | 0.094
7 | Nc1nc(N)c(C(=O)N[C@H]2CCC[N+](CCCc3ccc(OCC(=O)N(CCO)CCO)cc3)(CCCc3ccc(OCC(=O)N(CCO)CCO)cc3)C2)nc1Cl [Example 6.66] | 0.121
8 | CP(C)(=O)CNC(=O)COc1ccc(CCC[N+]2(CCCc3ccc(OCC(=O)NCP(C)(C)=O)cc3)CCC[C@H](NC(=O)c3nc(Cl)c(N)nc3N)C2)cc1 [Example 6.67] | 0.131

Next, values leading:

Row | IC50 [µM] | SMILES
9 | 0.011 | CN1CCOC(CNC(=O)COc2ccc(CCC[N+]3(CCCc4ccc(OCC(=O)NCC5CN(C)CCO5)cc4)CCC[C@H](NC(=O)c4nc(Cl)c(N)nc4N)C3)cc2)C1 (stereo partly drawn) [Example 6.47]
10 | 0.027 | CO[C@H]1COC[C@@H]1NC(=O)COc1ccc(CCC[N+]2(CCCc3ccc(OCC(=O)N[C@H]4COC[C@@H]4OC)cc3)CCC[C@H](NC(=O)c3nc(Cl)c(N)nc3N)C2)cc1 [Example 6.49]
11 | 0.006 | Nc1nc(N)c(C(=O)N[C@H]2CCC[N+](CCCc3ccc(OCC(=O)NCCc4ccccn4)cc3)(CCCc3ccc(OCC(=O)NCCc4ccccn4)cc3)C2)nc1Cl [Example 6.50]
12 | 0.005 | Nc1nc(N)c(C(=O)N[C@H]2CCC[N+](CCCc3ccc(OCC(=O)NCCc4cccnc4)cc3)(CCCc3ccc(OCC(=O)NCCc4cccnc4)cc3)C2)nc1Cl [Example 6.51]
13 | 0.004 | Nc1nc(N)c(C(=O)N[C@H]2CCC[N+](CCCc3ccc(OCC(=O)NCCc4ccncc4)cc3)(CCCc3ccc(OCC(=O)NCCc4ccncc4)cc3)C2)nc1Cl [Example 6.52]
14 | 0.039 | CN1CCN(C(=O)COc2ccc(CCC[N+]3(CCCc4ccc(OCC(=O)N5CCN(C)CC5)cc4)CCC[C@H](NC(=O)c4nc(Cl)c(N)nc4N)C3)cc2)CC1 [Example 6.53]
15 | 0.025 | Nc1nc(N)c(C(=O)N[C@H]2CCC[N+](CCCc3ccc(OCC(=O)NCCOCCO)cc3)(CCCc3ccc(OCC(=O)NCCOCCO)cc3)C2)nc1Cl [Example 6.55]
16 | 0.004 | Nc1nc(N)c(C(=O)N[C@H]2CCC[N+](CCCc3ccc(OCC(=O)NCc4cccnc4)cc3)(CCCc3ccc(OCC(=O)NCc4cccnc4)cc3)C2)nc1Cl [Example 6.57]
17 | 0.072 | Nc1nc(N)c(C(=O)N[C@H]2CCC[N+](CCCc3ccc(OCC(=O)N4CCOCC4)cc3)(CCCc3ccc(OCC(=O)N4CCOCC4)cc3)C2)nc1Cl [Example 6.58]
18 | 0.012 | COCCNC(=O)COc1ccc(CCC[N+]2(CCCc3ccc(OCC(=O)NCCOC)cc3)CCC[C@H](NC(=O)c3nc(Cl)c(N)nc3N)C2)cc1 [Example 6.59]
19 | 0.007 | COCCCNC(=O)COc1ccc(CCC[N+]2(CCCc3ccc(OCC(=O)NCCCOC)cc3)CCC[C@H](NC(=O)c3nc(Cl)c(N)nc3N)C2)cc1 [Example 6.60]
20 | 0.005 | Nc1nc(N)c(C(=O)N[C@H]2CCC[N+](CCCc3ccc(OCC(=O)NCc4ccccn4)cc3)(CCCc3ccc(OCC(=O)NCc4ccccn4)cc3)C2)nc1Cl [Example 6.62]
21 | 0.042 | Nc1nc(N)c(C(=O)N[C@H]2CCC[N+](CCCc3ccc(OCC(=O)NCCN4CCOCC4)cc3)(CCCc3ccc(OCC(=O)NCCN4CCOCC4)cc3)C2)nc1Cl [Example 6.63]
22 | 0.004 | Nc1nc(N)c(C(=O)N[C@H]2CCC[N+](CCCc3ccc(OCC(=O)NCc4ccncc4)cc3)(CCCc3ccc(OCC(=O)NCc4ccncc4)cc3)C2)nc1Cl [Example 6.64]

same assay, conditions: Ussing chamber, mouse kidney M-1 cells, short circuit current; unit inferred; read-out: IC50

Row | IC50 [µM] | SMILES
23 | 0.021 | COC(=O)C[C@@H](C[N+](C)(CCCc1ccc(OC)cc1)CCCc1ccc(OC)cc1)NC(=O)c1nc(Cl)c(N)nc1N [Example 7, {(S)-2-[(3,5-Diamino-6-chloro-pyrazine-2-carbonyl)-amino]-3-methoxycarbonyl-propyl}-bis-[3-(4-methoxy-phenyl)-propyl]-methyl-ammonium chloride]
24 | 1.3 | COC(=O)C[C@H](C[N+](C)(CCCc1ccc(OC)cc1)CCCc1ccc(OC)cc1)NC(=O)c1nc(Cl)c(N)nc1N [Example 7.1, {(R)-2-[(3,5-Diamino-6-chloro-pyrazine-2-carbonyl)-amino]-3-methoxycarbonyl-propyl}-bis-[3-(4-methoxy-phenyl)-propyl]-methyl-ammonium chloride]
25 | 0.165 | COC(=O)COc1ccc(CCC[N+]2(CCCc3ccc(OCC(=O)O)cc3)CCCC(NC(=O)c3nc(Cl)c(N)nc3N)C2)cc1 (stereo not drawn) [Example 8, 1-[3-(4-Carboxymethoxy-phenyl)-propyl]-3-[(3,5-diamino-6-chloro-pyrazine-2-carbonyl)amino]-1-[3-(4-methoxycarbonylmethoxy-phenyl)-propyl]-piperidinium trifluoroacetate]
26 | 0.085 | COC(=O)COc1ccc(CCC[N+]2(CCCc3ccc(OCC(=O)NCCN(C)C)cc3)CCCC(NC(=O)c3nc(Cl)c(N)nc3N)C2)cc1 (stereo not drawn) [Example 8.1, 3-[(3,5-Diamino-6-chloro-pyrazine-2-carbonyl)-amino]-1-(3-{4-[(2-dimethylaminoethylcarbamoyl)-methoxy]-phenyl}-propyl)-1-[3-(4-methoxycarbonylmethoxy-phenyl)-propyl]-piperidinium chloride hydrochloride]

same assay, conditions: Ussing chamber, mouse kidney M-1 cells, short circuit current; value printed in the example text with μM; read-out: IC50

Row | IC50 [µM] | SMILES
27 | 1.38 | COc1ccc(CCC[N+](C)(CCCc2ccc(OC)cc2)C[C@H](CC(=O)O)NC(=O)c2nc(Cl)c(N)nc2N)cc1 [Example 7.2, {(S)-3-Carboxy-2-[(3,5-diamino-6-chloro-pyrazine-2-carbonyl)-amino]-propyl}-bis-[3-(4-methoxy-phenyl)-propyl]-methyl-ammonium]

Source: US9096548B2, “Pyrazine amide compounds” (Boehringer Ingelheim International GmbH, priority 2013, dated 2015)
